Results reported in patent publication US7858621B2 (Amorepacific Corporation, priority 2006, dated 2010).

These compounds were tested against T1, vanilloid receptor (Rattus norvegicus, UniProt O35433) (assay: 45Ca influx test in cultured neonatal rat DRG neurons, inhibition of capsaicin response). Conditions: neonatal rat DRG neurons, capsaicin 0.5 μM, 45Ca influx; read-out: Antagonist Calcium Uptake Test (IC50).
T1 construct: DRG nerve cells from the primary culture of 2 days were equilibrated; endogenous in cells; host or cells: primary culture of dorsal root ganglion neurons from neonatal SD rats
T1 sequence (O35433 whole entry): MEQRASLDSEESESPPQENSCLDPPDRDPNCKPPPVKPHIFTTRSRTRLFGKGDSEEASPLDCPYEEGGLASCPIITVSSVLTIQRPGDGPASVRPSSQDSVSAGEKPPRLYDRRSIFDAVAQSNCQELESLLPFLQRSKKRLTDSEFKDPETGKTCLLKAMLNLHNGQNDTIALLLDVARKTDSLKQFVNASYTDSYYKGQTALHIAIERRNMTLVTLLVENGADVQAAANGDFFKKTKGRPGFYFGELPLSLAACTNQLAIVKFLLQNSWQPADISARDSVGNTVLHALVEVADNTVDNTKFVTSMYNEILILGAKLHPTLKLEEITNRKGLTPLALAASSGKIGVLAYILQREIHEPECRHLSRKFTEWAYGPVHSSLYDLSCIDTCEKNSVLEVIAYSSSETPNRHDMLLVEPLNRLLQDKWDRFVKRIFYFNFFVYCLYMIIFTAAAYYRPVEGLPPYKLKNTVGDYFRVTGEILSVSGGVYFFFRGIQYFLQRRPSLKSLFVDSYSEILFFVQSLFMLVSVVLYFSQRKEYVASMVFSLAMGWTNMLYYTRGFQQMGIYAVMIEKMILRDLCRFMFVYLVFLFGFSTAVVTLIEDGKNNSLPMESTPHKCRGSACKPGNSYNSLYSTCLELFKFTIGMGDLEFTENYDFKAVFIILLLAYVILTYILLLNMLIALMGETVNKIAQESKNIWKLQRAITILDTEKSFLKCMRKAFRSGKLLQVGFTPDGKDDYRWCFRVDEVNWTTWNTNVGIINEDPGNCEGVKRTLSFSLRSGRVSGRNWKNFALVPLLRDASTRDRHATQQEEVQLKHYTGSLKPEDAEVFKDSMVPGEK
Assay type: cell-based
How it was run: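 Neonatal SD rat DRG neurons, cultured 2 days with NGF (200 ng/ml) and Ara-C, were washed in HEPES (10 mM, pH 7.4)-buffered Ca/Mg-free HBSS. Test compound was added with capsaicin (final 0.5 μM) and 45Ca (10 μCi/ml) for 10 min at room temperature; 45Ca uptake counted by scintillation after SDS elution.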

| Structure (SMILES) | IC50 |
| --- | --- |
| CS(=O)(=O)Nc1c(F)cc(CNC(=O)/C=C/c2ccc(C(F)(F)F)nc2CCc2ccccc2)cc1F [Example 203, N-(3,5-Difluoro-4-methanesulfonylamino-benzyl)-3-(2-phenethyl-6-trifluoromethyl-pyridin-3-yl)-acrylamide] | 120 nM |
| COCCNc1nc(C(F)(F)F)ccc1/C=C/C(=O)NCc1cc(F)c(NS(C)(=O)=O)c(F)c1 [Example 204, N-(3,5-Difluoro-4-methanesulfonylamino-benzyl)-3-[2-(2-methoxy-ethylamino)-6-trifluoromethyl-pyridin-3-yl]-acrylamide] | 170 nM |
| CCCCc1nc(C(F)(F)F)ccc1/C=C/C(=O)NCc1cc(F)c(NS(C)(=O)=O)c(F)c1 [Example 205, 3-(2-Butyl-6-trifluoromethyl-pyridin-3-yl)-N-(3,5-difluoro-4-methanesulfonylamino-benzyl)-acrylamide] | 86 nM |
| CCCc1nc(C(F)(F)F)ccc1/C=C/C(=O)NCc1cc(F)c(NS(C)(=O)=O)c(F)c1 [Example 207, N-(3,5-Difluoro-4-methanesulfonylamino-benzyl)-3-(2-propyl-6-trifluoromethyl-pyridin-3-yl)-acrylamide] | 140 nM |
| CCCc1nc(C(F)(F)F)ccc1/C=C/C(=O)NCc1ccc(NS(C)(=O)=O)c(C)c1 [Example 208, N-(4-Methanesulfonylamino-3-methyl-benzyl)-3-(2-propyl-6-trifluoromethyl-pyridin-3-yl)-acrylamide] | 49 nM |
| CCCc1nc(C(F)(F)F)ccc1/C=C/C(=O)N[C@H](C)c1ccc(NS(C)(=O)=O)c(F)c1 [Example 209, (R)-3-(2-Propyl-6-trifluoromethyl-pyridin-3-yl)-N-[1-(3-fluoro-4-methanesulfonylamino-phenyl)-ethyl]-acrylamide] | 87 nM |
| CCC(C)Nc1nc(C(F)(F)F)ccc1/C=C/C(=O)N[C@H](C)c1ccc(NS(C)(=O)=O)c(F)c1 (stereo partly drawn) [Example 210, (R)-3-(2-sec-Butylamino-6-trifluoromethyl-pyridin-3-yl)-N-[1-(3-fluoro-4-methanesulfonylamino-phenyl)-ethyl]-acrylamide] | 22 nM |
| CCC(C)Cc1nc(C(F)(F)F)ccc1/C=C/C(=O)N[C@H](C)c1ccc(NS(C)(=O)=O)c(F)c1 (stereo partly drawn) [Example 211, (R)-3-[2-(2-Methyl-butyl)-6-trifluoromethyl-pyridin-3-yl]-N-[1-(3-fluoro-4-methanesulfonylamino-phenyl)-ethyl]-acrylamide] | 62 nM |
| COCCNc1nc(C(F)(F)F)ccc1/C=C/C(=O)N[C@H](C)c1ccc(NS(C)(=O)=O)c(F)c1 [Example 212, (R)—N-[1-(3-Fluoro-4-methanesulfonylamino-phenyl)-ethyl]-3-[2-(2-methoxy-ethylamino)-6-trifluoromethyl-pyridin-3-yl]-acrylamide] | 110 nM |
| CCCCNc1nc(C(F)(F)F)ccc1/C=C/C(=O)N[C@H](C)c1ccc(NS(C)(=O)=O)c(F)c1 [Example 213, (R)—N-[1-(3-Fluoro-4-methanesulfonylamino-phenyl)-ethyl]-3-(2-butylamino)-6-trifluoromethyl-pyridin-3-yl-acrylamide] | 28 nM |
| CCCCCc1nc(C(F)(F)F)ccc1/C=C/C(=O)NCc1cc(C)c(NS(C)(=O)=O)c(F)c1 [Example 214, N-(3-Fluoro-4-methanesulfonylamino-5-methyl-benzyl)-3-(2-pentyl-6-trifluoromethyl)-pyridin-3-yl-acrylamide] | 98 nM |
| CCCCCc1nc(C(F)(F)F)ccc1/C=C/C(=O)N[C@H](C)c1ccc(NS(C)(=O)=O)c(F)c1 [Example 215, (R)—N-[1-(3-Fluoro-4-methanesulfonylamino-phenyl)-ethyl]-3-(2-pentyl-6-trifluoromethyl)-pyridin-3-yl-acrylamide] | 54 nM |
| CCCS(=O)(=O)c1nc(C(F)(F)F)ccc1C=CC(=O)NCc1ccc(NS(C)(=O)=O)c(C)c1 [Example 216, N-(4-Methanesulfonylamino-3-methyl-benzyl)-3-[2-(propane-1-sulfonyl)-6-trifluoromethyl-pyridin-3-yl]-acrylamide] | 2000 nM |
| CC(C)Nc1nc(C(F)(F)F)ccc1/C=C/C(=O)NCc1cc(F)c(NS(C)(=O)=O)c(F)c1 [Example 217, N-(3,5-Difluoro-4-methanesulfonylamino-benzyl)-3-(2-isopropylamino-6-trifluoromethyl-pyridin-3-yl)-acrylamide] | 130 nM |
| CC(C)Nc1nc(C(F)(F)F)ccc1/C=C/C(=O)N[C@H](C)c1ccc(NS(C)(=O)=O)c(F)c1 [Example 218, (R)—N-[1-(3-Fluoro-4-methanesulfonylamino-phenyl)-ethyl]-3-(2-isopropylamino-6-trifluoromethyl-pyridin-3-yl)-acrylamide] | 46 nM |
| Cc1cc(CNC(=O)/C=C/c2ccc(C(F)(F)F)nc2NC(C)C)ccc1NS(C)(=O)=O [Example 219, 3-(2-Isopropylamino-6-trifluoromethyl-pyridin-3-yl)-N-(4-methanesulfonylamino-3-methyl-benzyl)-acrylamide] | 73 nM |

| Structure (SMILES) | IC50 |
| --- | --- |
| Cc1cc(CNC(=O)/C=C/c2ccc(C(F)(F)F)nc2NC(C)C)cc(F)c1NS(C)(=O)=O [Example 220, N-(3-Fluoro-4-methanesulfonylamino-5-methyl-benzyl)-3-(2-isopropylamino-6-trifluoromethyl-pyridin-3-yl)-acrylamide] | 71 nM |
| C#Cc1cc(CNC(=O)/C=C/c2ccc(C(F)(F)F)nc2NCCC)cc(F)c1NS(C)(=O)=O [Example 221, N-(3-Ethynyl-5-fluoro-4-methanesulfonylamino-benzyl)-3-(2-propylamino-6-trifluoromethyl-pyridin-3-yl)-acrylamide] | 23 nM |
| CCCNc1nc(C(F)(F)F)ccc1/C=C/C(=O)NCc1cc(C)c(NS(C)(=O)=O)c(F)c1 [Example 223, N-(3-Fluoro-4-methanesulfonylamino-5-methyl-benzyl)-3-(2-propylamino-6-trifluoromethyl-pyridin-3-yl)-acrylamide] | 55 nM |
| CCCNc1nc(C(F)(F)F)ccc1/C=C/C(=O)N[C@H](C)c1ccc(NS(C)(=O)=O)c(F)c1 [Example 224, (R)—N-[1-(3-Fluoro-4-methanesulfonylamino-phenyl)-ethyl]-3-(2-propylamino-6-trifluoromethyl-pyridin-3-yl)-acrylamide] | 16 nM |
| CCCNc1nc(C(F)(F)F)ccc1/C=C/C(=O)NCc1ccc(NS(C)(=O)=O)c(C)c1 [Example 225, N-(4-Methanesulfonylamino-3-methyl-benzyl)-3-(2-propylamino-6-trifluoromethyl-pyridin-3-yl)-acrylamide] | 52 nM |
| CC(C)Cc1nc(C(F)(F)F)ccc1/C=C/C(=O)NCc1cc(F)c(NS(C)(=O)=O)c(F)c1 [Example 226, N-(3,5-Difluoro-4-methanesulfonylamino-benzyl)-3-(2-isobutyl-6-trifluoromethyl-pyridin-3-yl)-acrylamide] | 85 nM |
| CC(C)Nc1nc(C(F)(F)F)ccc1/C=C/C(=O)N[C@H](C)c1cc(F)c(NS(C)(=O)=O)c(F)c1 [Example 227, (R)—N-[1-(3,5-Difluoro-4-methanesulfonylamino-phenyl)-ethyl]-3-(2-isopropylamino-6-trifluoromethyl-pyridin-3-yl)-acrylamide] | 19 nM |
| CCCCc1nc(C(F)(F)F)ccc1/C=C/C(=O)N[C@H](C)c1cc(F)c(NS(C)(=O)=O)c(F)c1 [Example 228, (R)-3-(2-Butyl-6-trifluoromethyl-pyridin-3-yl)-N-[1-(3,5-difluoro-4-methanesulfonylamino-phenyl)-ethyl]-acrylamide] | 12 nM |
| CCCNc1nc(C(F)(F)F)ccc1/C=C/C(=O)N[C@H](C)c1cc(F)c(NS(C)(=O)=O)c(F)c1 [Example 229, (R)—N-[1-(3,5-Difluoro-4-methanesulfonylamino-phenyl)-ethyl]-3-(2-propylamino-6-trifluoromethyl-pyridin-3-yl)-acrylamide] | 15 nM |
| C#Cc1cc(CNC(=O)/C=C/c2ccc(C(F)(F)F)nc2C(C)C)cc(F)c1NS(C)(=O)=O [Example 231, N-(3-Ethynyl-5-fluoro-4-methanesulfonylamino-benzyl)-3-(2-isopropyl-6-trifluoromethyl-pyridin-3-yl)-acrylamide] | 76 nM |
| CC(C)c1nc(C(F)(F)F)ccc1/C=C/C(=O)NCc1cc(F)c(NS(C)(=O)=O)c(F)c1 [Example 232, N-(3,5-Difluoro-4-methanesulfonylamino-benzyl)-3-(2-isopropyl-6-trifluoromethyl-pyridin-3-yl)-acrylamide] | 190 nM |
| Cc1cc(CNC(=O)/C=C/c2ccc(C(F)(F)F)nc2C(C)C)ccc1NS(C)(=O)=O [Example 233, N-(4-methanesulfonylamino-3-methyl-benzyl)-3-(2-isopropyl-6-trifluoromethyl-pyridin-3-yl)-acrylamide] | 80 nM |
| CC(C)c1nc(C(F)(F)F)ccc1/C=C/C(=O)N[C@H](C)c1ccc(NS(C)(=O)=O)c(F)c1 [Example 234, (R)—N-[1-(3-Fluoro-4-methanesulfonylamino-phenyl)-ethyl]-3-(2-isopropyl-6-trifluoromethyl-pyridin-3-yl)-acrylamide] | 41 nM |
| CCC(C)c1nc(C(F)(F)F)ccc1/C=C/C(=O)NCc1cc(F)c(NS(C)(=O)=O)c(F)c1 (stereo not shown) [Example 235, N-(3,5-Difluoro-4-methanesulfonylamino-benzyl)-3-(2-sec-butyl-6-trifluoromethyl-pyridin-3-yl)-acrylamide] | 190 nM |
| C[C@@H](NC(=O)/C=C/c1ccc(C(F)(F)F)nc1CCc1ccccc1)c1cc(F)c(NS(C)(=O)=O)c(F)c1 [Example 236, (R)—N-[1-(3,5-Difluoro-4-methanesulfonylamino-phenyl)-ethyl]-3-(2-phenethyl-6-trifluoromethyl-pyridin-3-yl)-acrylamide] | 49 nM |
